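48-hour exposure; five concentrations; linearly interpolated endpoints. Definition used: TGI = concentration required for complete inhibition of growth.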
How the values were obtained:
Assay in all cases: DTP human tumour cell line panel, 48 h
[1] = test system: 786-0 renal
[2] = test system: A498 renal
[3] = test system: A549 NSCLC
[4] = test system: ACHN renal
[5] = test system: BT-549 breast
[6] = test system: CAKI-1 renal
[7] = test system: CCRF-CEM leukemia
[8] = test system: COLO 205 colon
[9] = test system: DU-145 prostate
[10] = test system: EKVX NSCLC
[11] = test system: HCC-2998 colon
[12] = test system: HCT-116 colon
[13] = test system: HCT-15 colon
[14] = test system: HL-60(TB) leukemia
[15] = test system: HOP-62 NSCLC
[16] = test system: HOP-92 NSCLC
[17] = test system: HS 578T breast
[18] = test system: HT29 colon
[19] = test system: IGROV1 ovarian
[20] = test system: K-562 leukemia
[21] = test system: KM12 colon
[22] = test system: LOX IMVI melanoma
[23] = test system: M14 melanoma
[24] = test system: MALME-3M melanoma
[25] = test system: MCF7 breast
[26] = test system: MDA-MB-231 breast
[27] = test system: MDA-MB-435
[28] = test system: MDA-N
[29] = test system: MOLT-4 leukemia
[30] = test system: NCI-H226 lung
[31] = test system: NCI-H23 lung
[32] = test system: NCI-H460 lung
[33] = test system: NCI-H522 lung
[34] = test system: NCI/ADR-RES ovarian
[35] = test system: OVCAR-3 ovarian
[36] = test system: OVCAR-4 ovarian
[37] = test system: OVCAR-5 ovarian
[38] = test system: OVCAR-8 ovarian
[39] = test system: PC-3 prostate
[40] = test system: RPMI-8226 leukemia
[41] = test system: RXF 393 renal
[42] = test system: SF-268 CNS
[43] = test system: SF-295 CNS
[44] = test system: SF-539 CNS
[45] = test system: SK-MEL-2 melanoma
[46] = test system: SK-MEL-28 melanoma
[47] = test system: SK-MEL-5 melanoma
[48] = test system: SK-OV-3 ovarian
[49] = test system: SN12C renal
[50] = test system: SNB-19 CNS
[51] = test system: SNB-75 CNS
[52] = test system: SR leukemia
[53] = test system: SW-620 colon
[54] = test system: T-47D breast
[55] = test system: TK-10 renal
[56] = test system: U251 CNS
[57] = test system: UACC-257 melanoma
[58] = test system: UACC-62 melanoma
[59] = test system: UO-31 renal

COc1c(O)ccc2c1CN1CCc3cc4c(cc3C1C2)OCO4 (configuration not stated)
TGI [1]: > 100 µM
TGI [2]: > 78.9 µM
TGI [3]: > 100 µM
TGI [4]: > 79 µM
TGI [5]: > 100 µM
TGI [6]: > 100 µM
TGI [7]: > 100 µM
TGI [8]: > 100 µM
TGI [9]: > 100 µM
TGI [10]: > 100 µM
TGI [11]: > 100 µM
TGI [12]: > 100 µM
TGI [13]: > 100 µM
TGI [14]: > 100 µM
TGI [15]: > 100 µM
TGI [16]: > 100 µM
TGI [17]: > 100 µM
TGI [18]: > 100 µM
TGI [19]: > 100 µM
TGI [20]: > 100 µM
TGI [21]: > 100 µM
TGI [22]: > 77.8 µM
TGI [23]: > 100 µM
TGI [24]: > 100 µM
TGI [25]: > 63.1 µM
TGI [26]: > 100 µM
TGI [27]: > 60.9 µM
TGI [28]: > 80.8 µM
TGI [29]: > 100 µM
TGI [30]: > 100 µM
TGI [31]: > 100 µM
TGI [32]: > 74.7 µM
TGI [33]: 36.1 µM
TGI [34]: 90.2 µM
TGI [35]: > 83.2 µM
TGI [36]: > 100 µM
TGI [37]: > 100 µM
TGI [38]: > 100 µM
TGI [39]: > 100 µM
TGI [40]: > 100 µM
TGI [41]: 50.6 µM
TGI [42]: > 100 µM
TGI [43]: > 96.6 µM
TGI [44]: > 100 µM
TGI [45]: > 92.9 µM
TGI [46]: > 100 µM
TGI [47]: > 100 µM
TGI [48]: > 100 µM
TGI [49]: > 84.4 µM
TGI [50]: > 100 µM
TGI [51]: 65.3 µM
TGI [52]: > 100 µM
TGI [53]: > 100 µM
TGI [54]: > 73.9 µM
TGI [55]: > 79.6 µM
TGI [56]: > 100 µM
TGI [57]: > 77.2 µM
TGI [58]: > 100 µM
TGI [59]: > 100 µM

c1ccc(CCN(Cc2nc3ccccc3[nH]2)Cc2nc3ccccc3[nH]2)cc1
TGI [1]: 31.7 µM
TGI [2]: 30.6 µM
TGI [3]: 44.8 µM
TGI [4]: 22.4 µM
TGI [5]: 27.2 µM
TGI [6]: 12.5 µM
TGI [7]: > 100 µM
TGI [8]: 31.2 µM
TGI [9]: 31.7 µM
TGI [10]: > 77.8 µM
TGI [11]: 33.6 µM
TGI [12]: 17 µM
TGI [13]: 22.1 µM
TGI [14]: 7.8 µM
TGI [15]: 24.9 µM
TGI [16]: 30.7 µM
TGI [17]: 43.4 µM
TGI [18]: > 63.5 µM
TGI [19]: 17.8 µM
TGI [20]: 12.9 µM
TGI [21]: 27.3 µM
TGI [22]: 23.1 µM
TGI [23]: 26.7 µM
TGI [24]: 45.7 µM
TGI [25]: 35.1 µM
TGI [26]: 31.8 µM
TGI [27]: 29.8 µM
TGI [28]: 36.3 µM
TGI [29]: 39.3 µM
TGI [30]: > 68.5 µM
TGI [31]: 37.9 µM
TGI [32]: 28.3 µM
TGI [33]: 49.4 µM
TGI [34]: 18.1 µM
TGI [35]: 48.5 µM
TGI [36]: 68.9 µM
TGI [37]: 71.6 µM
TGI [38]: 18.6 µM
TGI [39]: 36.7 µM
TGI [40]: 11.6 µM
TGI [41]: 28.9 µM
TGI [42]: 33.6 µM
TGI [43]: 35.4 µM
TGI [44]: 38.9 µM
TGI [45]: 36.6 µM
TGI [46]: 30.4 µM
TGI [47]: 16.3 µM
TGI [48]: 70 µM
TGI [49]: 30.8 µM
TGI [50]: > 31.6 µM
TGI [51]: 36.7 µM
TGI [52]: 35.3 µM
TGI [53]: 26 µM
TGI [54]: 40.8 µM
TGI [55]: 35.7 µM
TGI [56]: 19.8 µM
TGI [57]: 32.5 µM
TGI [58]: 28.3 µM
TGI [59]: 26.2 µM

O=C1/C(=C\c2ccc(-c3ccc(Cl)cc3Cl)o2)SC2N=C(COc3ccc(Cl)cc3)NN12 (configuration not stated)
TGI [1]: > 100 µM
TGI [2]: 5.98 µM
TGI [3]: > 100 µM
TGI [4]: > 100 µM
TGI [5]: > 100 µM
TGI [6]: > 100 µM
TGI [7]: > 100 µM
TGI [8]: > 100 µM
TGI [9]: > 100 µM
TGI [10]: 86.5 µM
TGI [11]: > 100 µM
TGI [12]: > 100 µM
TGI [13]: > 100 µM
TGI [14]: > 100 µM
TGI [15]: > 100 µM
TGI [16]: > 100 µM
TGI [17]: 87.8 µM
TGI [18]: > 100 µM
TGI [19]: > 100 µM
TGI [20]: > 100 µM
TGI [21]: > 100 µM
TGI [22]: > 100 µM
TGI [23]: > 100 µM
TGI [24]: > 100 µM
TGI [25]: > 100 µM
TGI [26]: > 100 µM
TGI [27]: > 100 µM
TGI [28]: > 100 µM
TGI [29]: > 100 µM
TGI [30]: > 100 µM
TGI [31]: > 100 µM
TGI [32]: > 100 µM
TGI [33]: > 100 µM
TGI [34]: > 100 µM
TGI [35]: > 100 µM
TGI [36]: > 100 µM
TGI [37]: > 100 µM
TGI [38]: > 100 µM
TGI [39]: > 100 µM
TGI [40]: > 100 µM
TGI [41]: 88 µM
TGI [42]: > 100 µM
TGI [43]: > 100 µM
TGI [44]: > 100 µM
TGI [45]: > 100 µM
TGI [46]: > 100 µM
TGI [47]: > 100 µM
TGI [48]: > 100 µM
TGI [49]: > 100 µM
TGI [50]: > 100 µM
TGI [51]: > 100 µM
TGI [52]: > 100 µM
TGI [53]: > 100 µM
TGI [54]: > 100 µM
TGI [55]: 18.3 µM
TGI [56]: 98.2 µM
TGI [57]: 74.4 µM
TGI [58]: > 100 µM
TGI [59]: > 100 µM

Source: PubChem BioAssay (NCI)
